Here are results for 24 compounds from patent publication US9133157B2, “HIV protease inhibitors” (Merck Canada Inc., priority 2011, dated 2015).

The assay addresses WT HIV-1 protease (Human immunodeficiency virus type 1 group M subtype B (isolate HXB2) (HIV-1), UniProt P04585). Kind of assay: Assay for inhibition of microbial expressed HIV protease (Procedure A, peptide substrate, HPLC fluorescence detection). In kind it is biochemical. As to conditions: WT HIV-1 protease 10 pM, substrate 400 micromolar, pH 5.5, 30 min preincubation, 1 hour at 30° C.; read-out: Enzyme inhibition IC50. The procedure:
The inhibition of WT HIV-1 protease was studied using the reaction of the protease (expressed in Eschericia coli) with a peptide substrate [Val-Ser-Gln-Asn-(betanaphthyl)Ala-Pro-Ile-Val (SEQ ID NO:1)]. Compounds were tested using Procedure A. In Procedure A, the test compound was first preincubated with the enzyme in assay buffer (50 mM sodium acetate, pH 5.5, 100 mM NaCl, and 0.1% BSA) for 30 minutes at room temperature. Substrate was then added to 400 micromolar in a total volume of 80 microliters containing 10 picomolar HIV-1 protease and the reaction was incubated for 1 hour at 30° C. The reaction was quenched with the addition of 120 microliters of 10% phosphoric acid. The product formation was determined after separation of product and substrate on a Zorbax Eclipse XDB-C18 column (Agilent Technologies, Santa Clara, Calif.) connected to an Agilent 1100 high performance liquid chromatography system with fluorescence detection (excitation 270 nanometer and emission 330 nanometer).
Turning to `CC(C)CN(C(CO)c1ccc(CNC(=O)C(NC(=O)c2ccccc2)C(c2ccccc2)c2ccnc3ccccc23)s1)S(=O)(=O)c1ccc2ncsc2c1` (stereo not drawn) [Example 125, N-[1-[[5-[1-(1,3-benzothiazol-6-ylsulfonyl(isobutyl)amino)-2-hydroxy-ethyl]-2-thienyl]methylcarbamoyl]-2-phenyl-2-(4-quinolyl)ethyl]benzamide], the IC50 (usually the concentration that gives 50% inhibition) stood at 0.409 µM.
With `COC(=O)N[C@H](C(=O)N[C@H](c1ccc([C@@H](CO)N(CCC(C)(C)C)S(=O)(=O)c2ccc3nccn3c2)s1)C(F)(F)F)C(c1ccccc1)c1ccccc1` [Example 71, N-[(1S)-1-(5-{(1R)-1-[(3,3-dimethylbutyl)(imidazo[1,2-a]pyridin-6-ylsulfonyl)amino]-2-hydroxyethyl}thiophen-2-yl)-2,2,2-trifluoroethyl]-Nα-(methoxycarbonyl)-β-phenyl-L-phenylalaninamide], the concentration for half-maximal inhibition (IC50) was determined as 0.00664 µM.
Consider `COC(=O)N[C@H](C(=O)NCc1ccc(C(CO)N(CC2CC(F)(F)C2)S(=O)(=O)c2ccc3c(c2)CCC3O)s1)C(c1ccccc1)c1ccccc1` (stereo partly drawn) [Example 36], for which the IC50 came to 0.00365 µM.
Regarding `COC(=O)N[C@H](C(=O)N[C@H](c1ccc([C@@H](CO)N(CCC(C)(C)C)S(=O)(=O)c2ccc(-c3ccn(C)n3)cc2)s1)C(F)(F)F)C(c1ccccc1)c1ccccc1` [Example 92], the IC50 was 0.0666 µM.
The value for `COC(=O)N[C@H](C(=O)NCc1csc(C(CO)N(CCC(C)C)S(=O)(=O)c2ccccc2)c1)C(c1ccccc1)c1ccccc1` (stereo partly drawn) [Example 1, N-[(5-{2-hydroxy-1-[(3-methylbutyl)(phenylsulfonyl)amino]ethyl}thiophen-3-yl)methyl]-Nα-(methoxycarbonyl)-β-phenyl-L-phenylalaninamide] was 0.0728 µM.
For the compound `COC(=O)N[C@H](C(=O)N[C@H](c1ccc([C@@H](CO)N(CCC(C)(C)C)S(=O)(=O)c2ccc(-n3cnnn3)cc2)s1)C(F)(F)F)C(c1ccccc1)c1ccccc1` [Example 111, N-((1S)-1-{5-[(1R)-1-((3,3-dimethylbutyl){[4-(1H-tetrazol-1-yl)phenyl]sulfonyl}amino)-2-hydroxyethyl]-2-thienyl}-2,2,2-trifluoroethyl)-Nα-(methoxycarbonyl)-β-phenyl-L-phenylalaninamide], the IC50 came to 0.0193 µM.
For `COC(=O)N[C@H](C(=O)NCc1ccc(C(CO)N(Cc2cnon2)S(=O)(=O)c2ccc(N)cc2)s1)C(c1ccccc1)c1ccccc1` (stereo partly drawn) [Example 20], the IC50 amounted to 0.00697 µM.
The value for `COC(=O)N[C@H](C(=O)N[C@H](c1ccc([C@@H](CO)N(CCC(C)(C)C)S(=O)(=O)c2ccc(-c3ccno3)cc2)s1)C(F)(F)F)C(c1ccccc1)c1ccccc1` [Example 114, N-{(1S)-1-[5-((1R)-1-{(3,3-dimethylbutyl)[(4-isoxazol-5-ylphenyl)sulfonyl]amino}-2-hydroxyethyl)-2-thienyl]-2,2,2-trifluoroethyl}-Nα-(methoxycarbonyl)-β-phenyl-L-phenylalaninamide] was 0.00077 µM.
The value for `[2H]C([2H])([2H])C([2H])(N([C@H](CO)c1ccc([C@@H](NC(=O)[C@@H](NC(=O)OC)C(c2ccccc2)c2ccccc2)C(F)(F)F)s1)S(=O)(=O)c1ccc(N)cc1F)C([2H])([2H])[2H]` [Example 108, N-[(1S)-1-{5-[(1R)-1-{[(4-amino-2-fluorophenyl)sulfonyl][(2-^2H)propan-2-yl]amino}-2-hydroxyethyl]thiophen-2-yl}-2,2,2-trifluoroethyl]-Nα-(methoxycarbonyl)-β-phenyl-L-phenylalaninamide] was 0.0094 µM; that for `CC(C)CN(C(CO)c1ccc(CNC(=O)C(NC(=O)c2ccccc2)C(c2ccccc2)c2cn(C)c3ccccc23)s1)S(=O)(=O)c1ccc2ncsc2c1` (stereo not drawn) [Example 127, N-[1-[[5-[1-(1,3-benzothiazol-6-ylsulfonyl(isobutyl)amino)-2-hydroxy-ethyl]-2-thienyl]methylcarbamoyl]-2-(1-methylindol-3-yl)-2-phenyl-ethyl]benzamide] was 0.008 µM; that for `COC(=O)N[C@H](C(=O)NCc1ccc(C(CO)N(CCC(C)C)S(=O)(=O)c2ccc(CO)cc2)s1)C(c1ccccc1)c1ccccc1` (stereo partly drawn) [Example 5] was 0.00054 µM.
As for `COC(=O)N[C@H](C(=O)NC(C)c1ccc(C(CO)N(CCC(C)C)S(=O)(=O)c2ccc(CO)cc2)s1)C(c1ccccc1)c1ccccc1` (stereo partly drawn) [Example 8], the figure is 0.00031 µM; as for `COC(=O)N[C@H](C(=O)NCc1cnc(C(CO)N(CCC(C)C)S(=O)(=O)c2ccccc2)s1)C(c1ccccc1)c1ccccc1` (stereo partly drawn) [Example 2, N-[(2-{2-hydroxy-1-[(3-methylbutyl)(phenylsulfonyl)amino]ethyl}-1,3-thiazol-5-yl)methyl]-Nα-(methoxycarbonyl)-β-phenyl-L-phenylalaninamide], 0.25 µM.
On to `COC(=O)N[C@H](C(=O)N[C@H](c1ccc([C@@H](CO)N(CCC(C)(C)C)S(=O)(=O)c2ccc(N)c(F)c2)s1)C(F)(F)F)C(c1ccccc1)c1ccccc1` [Example 97, N-[(1S)-1-{5-[(1R)-1-{[(4-amino-3-fluorophenyl)sulfonyl](3,3-dimethylbutyl)amino}-2-hydroxyethyl]thiophen-2-yl}-2,2,2-trifluoroethyl]-Nα-(methoxycarbonyl)-β-phenyl-L-phenylalaninamide], for which the IC50 is 0.00123 µM.
As to `COC(=O)N[C@H](C(=O)NCc1ccc([C@@H](CO)N(CC2CC(F)(F)C2)S(=O)(=O)c2ccc3c(c2)C(O)CC3)s1)C(c1ccccc1)c1ccccc1` (stereo partly drawn) [Example 38], the IC50 amounted to 0.0136 µM.
For `COC(=O)N[C@H](C(=O)N[C@H](c1ccc([C@@H](CO)N(CCC(C)(C)C)S(=O)(=O)c2cn3cc(Cl)nc3cn2)s1)C(F)(F)F)C(c1ccccc1)c1ccccc1` [Example 119, N-[(1S)-1-{5-[(1R)-1-{[(2-chloroimidazo[1,2-a]pyrazin-6-yl)sulfonyl](3,3-dimethylbutyl)amino}-2-hydroxyethyl]thiophen-2-yl}-2,2,2-trifluoroethyl]-Nα-(methoxycarbonyl)-β-phenyl-L-phenylalaninamide], the half-maximal inhibitory concentration (IC50) is 0.0139 µM.
For `COC(=O)N[C@H](C(=O)NCc1ccc([C@@H](CO)N(CC2CC(F)(F)C2)S(=O)(=O)c2ccc(N)cc2)s1)C(c1ccccc1)c1ccccc1` [Example 11], the IC50 was determined as 0.00161 µM.
The value for `COC(=O)N[C@H](C(=O)N[C@H](c1ccc([C@@H](CO)N(C(C)C)S(=O)(=O)c2ccc(C(N)=O)cc2)s1)C(F)(F)F)C(c1ccccc1)c1ccccc1` [Example 109, methyl [(1S)-2-{[(1)-1-(5-{(1R)-1-[{[4-(aminocarbonyl)phenyl]sulfonyl}(isopropyl)amino]-2-hydroxyethyl}-2-thienyl)-2,2,2-trifluoroethyl]amino}-1-(diphenylmethyl)-2-oxoethyl]carbamate] was 0.0315 µM.
As to “N-{(1S)-1-[5-((1R)-1-{(3,3-dimethylbutyl)[4-(1-methyl-1H-pyrazol-4-ylphenylsulfonyl]amino}-2-hydroxyethyl)-2-thienyl]-2,2,2-trifluoroethyl}-Nα-(methoxycarbonyl)-β-phenyl-L-phenylalaninamide [Example 115]”, the half-inhibitory concentration (IC50) came to 0.0209 µM.
`COC(=O)N[C@H](C(=O)N[C@H](c1ccc([C@@H](CO)N(CCC(C)(C)C)S(=O)(=O)c2ccc(CO)c(C(F)(F)F)c2)s1)C(F)(F)F)C(c1ccccc1)c1ccccc1` [Example 56, N-[(1S)-1-(5-{(1R)-1-[(3,3-dimethylbutyl){[4-(hydroxymethyl)-3-(trifluoromethyl)phenyl]sulfonyl}amino]-2-hydroxyethyl}thiophen-2-yl)-2,2,2-trifluoroethyl]-Nα-(methoxycarbonyl)-β-phenyl-L-phenylalaninamide]: the IC50 was 0.0594 µM.
For `COC(=O)N[C@H](C(=O)NCc1ccc([C@H](CO)N(Cc2cn[nH]c2)S(=O)(=O)c2ccc3scnc3c2)s1)C(c1ccccc1)c1ccccc1` [Example 33], the IC50 was 0.0966 µM.
Take `COC(=O)N[C@H](C(=O)NCc1cc(C(CO)N(CCC(C)C)S(=O)(=O)c2ccccc2)cs1)C(c1ccccc1)c1ccccc1` (stereo partly drawn) [Example 6, N-[(4-{2-hydroxy-1-[(3-methylbutyl)(phenylsulfonyl)amino]ethyl}thiophen-2-yl)methyl]-Nα-(methoxycarbonyl)-β-phenyl-L-phenylalaninamide]: the IC50 was found to be 0.0427 µM.
As for `COC(=O)N[C@H](C(=O)N[C@H](c1ccc([C@@H](CO)N(CCC(C)(C)C)S(=O)(=O)c2ccc3ncnn3c2)s1)C(F)(F)F)C(c1ccccc1)c1ccccc1` [Example 118, N-[(1S)-1-(5-{(1R)-1-[(3,3-dimethylbutyl)([1,2,4]triazolo[1,5-a]pyridin-6-ylsulfonyl)amino]-2-hydroxyethyl}thiophen-2-yl)-2,2,2-trifluoroethyl]-Nalpha-(methoxycarbonyl)-beta-phenyl-L-phenylalaninamide], the figure is 0.00243 µM.
The value for `[2H]C([2H])([2H])C(N([C@H](CO)c1ccc([C@@H](NC(=O)[C@@H](NC(=O)OC)C(c2ccccc2)c2ccccc2)C(F)(F)F)s1)S(=O)(=O)c1ccc(N)cc1)C([2H])([2H])[2H]` [Example 47, N-[(1S)-1-{5-[(1R)-1-{[(4-aminophenyl)sulfonyl][(1,1,1,3,3,3-^2H6)propan-2-yl]amino}-2-hydroxyethyl]thiophen-2-yl}-2,2,2-trifluoroethyl]-Nα-(methoxycarbonyl)-β-phenyl-L-phenylalaninamide] was 0.0337 µM.
